From ChEMBL document CHEMBL5241112, “Insights into the recent progress in the medicinal chemistry of pyranopyrimidine analogs” (RSC Med Chem, 2022)
Converted amounts (≈) assume the structure as drawn.

What was measured:
Bacillus subtilis = test: Antibacterial activity against Bacillus subtilis assessed as diameter of inhibition zone; assay type: functional
Escherichia coli [1] = test: Antibacterial activity against Escherichia coli assessed as diameter of inhibition zone; assay type: functional
Salmonella typhimurium = test: Antibacterial activity against Salmonella typhimurium assessed as diameter of inhibition zone; assay type: functional, Salmonella enterica subsp. enterica serovar Typhimurium
MCF7 [2] = test: cells; conditions: Homo sapiens, MCF7, 48 h
HepG2 = test: Anticancer activity against human HepG2 cells assessed as reduction in cell viability; assay type: functional, cell-based
MCF7 [3] = test: Anticancer activity against human MCF7 cells assessed as reduction in cell viability; assay type: functional, cell-based
HCT-116 [4] = test: cells; conditions: Homo sapiens
[5] = system: Mycobacterium tuberculosis; test: Antitubercular activity against Mycobacterium tuberculosis H37Rv assessed as bacterial growth inhibition incubated for 24 hrs by MABA assay; assay type: functional
Bacillus cereus = test: Antimicrobial activity against Bacillus cereus ATCC14579 assessed as diameter of inhibition zone at 20 mg/ml incubated for 24 hrs by disk diffusion method; assay type: functional; conditions: read-out: DIZ
Staphylococcus aureus [6] = test: Antimicrobial activity against Staphylococcus aureus NCTC7447 assessed as diameter of inhibition zone at 20 mg/ml incubated for 24 hrs by disk diffusion method; assay type: functional; conditions: read-out: DIZ
Klebsiella pneumoniae = test: Antimicrobial activity against Klebsiella pneumoniae UC57 assessed as diameter of inhibition zone at 20 mg/ml incubated for 24 hrs by disk diffusion method; assay type: functional; conditions: read-out: DIZ
Pseudomonas aeruginosa = test: Antimicrobial activity against Pseudomonas aeruginosa ATCC 27853 assessed as diameter of inhibition zone at 20 mg/ml incubated for 24 hrs by disk diffusion method; assay type: functional; conditions: read-out: DIZ
Escherichia coli [7] = test: Antimicrobial activity against Escherichia coli ATCC 14169 assessed as diameter of inhibition zone at 20 mg/ml incubated for 24 hrs by disk diffusion method; assay type: functional; conditions: read-out: DIZ
Staphylococcus aureus [8] = test: Antibacterial activity against Staphylococcus aureus assessed as diameter of inhibition zone; assay type: functional
[9] = Antioxidant activity assessed as DPPH radical scavenging activity incubated for 20 mins by spectrophotometric analysis; assay type: functional; design: concentration or dose not given beside the values
[10] = Antioxidant activity assessed as hydroxyl radical scavenging activity incubated for 5 mins by spectrophotometric analysis; assay type: functional; design: concentration or dose not given beside the values
Alpha-glucosidase = Alpha-glucosidase (Saccharomyces cerevisiae S288c, UniProt P53341+P38158+P07265); test: Inhibition of Saccharomyces cerevisiae alpha-glucosidase preincubated for 5 mins followed by PNP-GLUC substrate addition and measured after 20 mins by spectroscopic analysis; assay type: protein assay
Albumin = Albumin (Bos taurus, UniProt P02769); test: […] bovine serum albumin denaturation incubated for 23 mins by UV-Visible spectrophotometry
Albumin, sequence (P02769 whole entry): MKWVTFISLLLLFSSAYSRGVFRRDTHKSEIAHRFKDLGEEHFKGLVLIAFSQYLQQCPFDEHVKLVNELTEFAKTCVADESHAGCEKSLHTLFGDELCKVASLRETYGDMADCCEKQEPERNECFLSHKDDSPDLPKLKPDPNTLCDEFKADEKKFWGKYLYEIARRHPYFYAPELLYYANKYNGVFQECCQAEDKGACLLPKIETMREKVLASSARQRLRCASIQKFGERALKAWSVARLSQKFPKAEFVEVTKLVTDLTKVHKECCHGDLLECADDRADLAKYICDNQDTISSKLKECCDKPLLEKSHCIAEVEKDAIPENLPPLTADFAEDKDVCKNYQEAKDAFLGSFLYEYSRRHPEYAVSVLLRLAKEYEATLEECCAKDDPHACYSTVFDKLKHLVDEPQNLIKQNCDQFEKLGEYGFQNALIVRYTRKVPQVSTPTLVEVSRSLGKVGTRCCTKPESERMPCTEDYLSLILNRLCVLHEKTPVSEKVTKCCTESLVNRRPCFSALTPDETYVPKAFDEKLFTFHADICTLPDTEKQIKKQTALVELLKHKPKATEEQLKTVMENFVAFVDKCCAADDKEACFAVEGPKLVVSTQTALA

[11] = Inhibition of porcine pancreatic alpha-amylase preincubated for 10 mins followed by substrate starch addition and measured after 10 mins by colorimetric analysis; design: species or system Sus scrofa
Homo sapiens = species on record: Homo sapiens; test: Anticoagulant activity in human plasma assessed as activated partial thromboplastin time at 1000 ug/ml incubated for 4 mins; assay type: functional; conditions: dose 1000 µg/ml
HCT-116 [12] = test: Anticancer activity against human HCT-116 cells assessed as reduction in cell viability incubated for 96 hrs by MTT assay; assay type: functional, cell-based; conditions: HCT-116, 96 h

N#CC1=C(N)Oc2[nH]c(=O)[nH]c(=O)c2C1c1ccc(F)cc1 (centres undefined)
diameter of the inhibition zone (DIZ) (Bacillus subtilis): 10 mm | diameter of the inhibition zone (DIZ) (Escherichia coli [1]): 8 mm | diameter of the inhibition zone (DIZ) (Salmonella typhimurium): 12 mm

O=c1[nH]cc(F)c(=O)[nH]1 [FLUOROURACIL]
IC50 (MCF7 [2]): 5.4 µM

COc1ccc(C2C(C#N)=C(NC(=O)/C=C/C(=O)O)Oc3[nH]c(=O)[nH]c(=O)c32)cc1 (centres undefined)
IC50 (HepG2): 2.09 µM | IC50 (MCF7 [3]): 2.43 µM | IC50 (HCT-116 [4]): 2.61 µM

O=c1nc2c3c([nH]1)Oc1ccc(Cl)cc1C3c1c(c3ccccc3oc1=O)O2 (centres undefined)
MIC [5]: 6.25 µg/mL (≈ 15.9 µM)

COc1ccc(C2c3c([nH]c(=O)[nH]c3=O)Oc3ncn(-c4ccc(C)cc4)c(=N)c32)cc1 (centres undefined)
IC50 (HepG2): 2.09 µM | IC50 (MCF7 [3]): 2.43 µM | IC50 (HCT-116 [4]): 2.61 µM

N#CC1=C(N)Oc2[nH]c(=O)[nH]c(=O)c2C1c1ccc([N+](=O)[O-])cc1 (centres undefined)
zone of inhibition at 20000 µg/mL (Bacillus cereus): 11 mm | zone of inhibition at 20000 µg/mL (Staphylococcus aureus [6]): 4 mm | zone of inhibition at 20000 µg/mL (Klebsiella pneumoniae): 4 mm | zone of inhibition at 20000 µg/mL (Pseudomonas aeruginosa): 3 mm | zone of inhibition at 20000 µg/mL (Escherichia coli [7]): 12 mm | diameter of the inhibition zone (DIZ) (Staphylococcus aureus [8]): 16 mm | diameter of the inhibition zone (DIZ) (Bacillus subtilis): 18 mm | diameter of the inhibition zone (DIZ) (Escherichia coli [1]): 16 mm | diameter of the inhibition zone (DIZ) (Salmonella typhimurium): 14 mm

O=c1[nH]c2c(c(=O)[nH]1)Oc1c(c(=O)oc3ccccc13)C2c1ccccc1O (centres undefined)
Activity [9]: 59.1% | Activity [10]: 54.3%

COc1cc(C2C(C(=O)N3CCCCC3)=C(c3ccccc3O)Oc3[nH]c(=S)[nH]c(=O)c32)ccc1O (centres undefined)
IC50 (Alpha-glucosidase): 4862 µM | IC50 (Albumin): 23.3 µM | IC50 [11]: 22.6 µM

CC1(C)CC(=O)C2=C(C1)Oc1ncn(-c3cccc(Cl)c3)c(=N)c1C2c1ccccc1 (centres undefined)
Time (Homo sapiens): 54.8 s

O=c1nc2c3c([nH]1)Oc1c(Cl)cc(Cl)cc1C3c1c(c3ccccc3oc1=O)O2 (centres undefined)
MIC [5]: 50 µg/mL (≈ 117 µM)

C[C@H]1O[C@H](O[C@H]2[C@H](O)[C@@H](O)[C@@H](O[C@H]3[C@H](O)[C@@H](O)C(O)O[C@@H]3CO)O[C@@H]2CO)[C@H](O)[C@@H](O)[C@@H]1N[C@H]1C=C(CO)[C@@H](O)[C@H](O)[C@H]1O (some centres undefined) [ACARBOSE]
IC50 [11]: 0.214 µM

COc1ccc(-n2cnc3c(c2=N)C(c2ccccc2)C2=C(CC(C)(C)CC2=O)O3)cc1 (centres undefined)
Time (Homo sapiens): 57 s

CCO/C=N/C1=C(C#N)C(c2cccs2)c2c([nH]c(=O)[nH]c2=O)O1 (centres undefined)
IC50 (HCT-116 [12]): 2.9 µM

CC1(C)CC(=O)C2=C(C1)Oc1ncn(-c3ccccc3)c(=N)c1C2c1ccccc1 (centres undefined)
Time (Homo sapiens): 57.1 s

CN[C@@H]1[C@H](O[C@H]2[C@H](O[C@H]3[C@H](O)[C@@H](O)[C@H](N=C(N)N)[C@@H](O)[C@@H]3N=C(N)N)O[C@@H](C)[C@]2(O)C=O)O[C@@H](CO)[C@H](O)[C@H]1O [STREPTOMYCIN]
zone of inhibition at 20000 µg/mL (Bacillus cereus): 16 mm | zone of inhibition at 20000 µg/mL (Staphylococcus aureus [6]): 18 mm | zone of inhibition at 20000 µg/mL (Klebsiella pneumoniae): 18 mm | zone of inhibition at 20000 µg/mL (Pseudomonas aeruginosa): 16 mm | zone of inhibition at 20000 µg/mL (Escherichia coli [7]): 18 mm | diameter of the inhibition zone (DIZ) (Staphylococcus aureus [8]): 16 mm | diameter of the inhibition zone (DIZ) (Bacillus subtilis): 18 mm | diameter of the inhibition zone (DIZ) (Escherichia coli [1]): 20 mm | diameter of the inhibition zone (DIZ) (Salmonella typhimurium): 18 mm | MIC [5]: 6.25 µg/mL (≈ 10.7 µM)

N#CC1=C(N)Oc2[nH]c(=O)[nH]c(=O)c2C1c1ccccc1[N+](=O)[O-] (centres undefined)
zone of inhibition at 20000 µg/mL (Bacillus cereus): 10 mm | zone of inhibition at 20000 µg/mL (Staphylococcus aureus [6]): 5 mm | zone of inhibition at 20000 µg/mL (Klebsiella pneumoniae): 6 mm | zone of inhibition at 20000 µg/mL (Pseudomonas aeruginosa): 9 mm | zone of inhibition at 20000 µg/mL (Escherichia coli [7]): 11 mm

N#CC1=C(N)Oc2[nH]c(=O)[nH]c(=O)c2C1c1cccc(Br)c1 (centres undefined)
diameter of the inhibition zone (DIZ) (Staphylococcus aureus [8]): 16 mm | diameter of the inhibition zone (DIZ) (Bacillus subtilis): 18 mm | diameter of the inhibition zone (DIZ) (Escherichia coli [1]): 14 mm | diameter of the inhibition zone (DIZ) (Salmonella typhimurium): 16 mm

O=C(C1=C(c2ccccc2O)Oc2[nH]c(=S)[nH]c(=O)c2C1c1ccc(O)cc1)N1CCCCC1 (centres undefined)
IC50 (Alpha-glucosidase): 3553 µM | IC50 (Albumin): 19.7 µM | IC50 [11]: 27.1 µM

N#CC1=C(N)Oc2[nH]c(=O)[nH]c(=O)c2C1c1cccc(O)c1 (centres undefined)
zone of inhibition at 20000 µg/mL (Bacillus cereus): 10 mm | zone of inhibition at 20000 µg/mL (Staphylococcus aureus [6]): 15 mm | zone of inhibition at 20000 µg/mL (Klebsiella pneumoniae): 8 mm | zone of inhibition at 20000 µg/mL (Pseudomonas aeruginosa): 15 mm | zone of inhibition at 20000 µg/mL (Escherichia coli [7]): 14 mm

COc1ccc(C2c3c([nH]c(=O)[nH]c3=O)Oc3ncn(-c4ccccc4N)c(=N)c32)cc1 (centres undefined)
IC50 (HepG2): 2.09 µM | IC50 (MCF7 [3]): 2.43 µM | IC50 (HCT-116 [4]): 2.61 µM

O=c1[nH]c2c(c(=O)[nH]1)Oc1c(c(=O)oc3ccccc13)C2c1ccc(F)cc1 (centres undefined)
Activity [9]: 70.1% | Activity [10]: 62.1%

O=c1nc2c3c([nH]1)Oc1c(O)cccc1C3c1c(c3ccccc3oc1=O)O2 (centres undefined)
MIC [5]: 50 µg/mL (≈ 134 µM)

N#CC1=C(N)Oc2[nH]c(=O)[nH]c(=O)c2C1c1ccc(O)cc1 (centres undefined)
zone of inhibition at 20000 µg/mL (Bacillus cereus): 14 mm | zone of inhibition at 20000 µg/mL (Staphylococcus aureus [6]): 15 mm | zone of inhibition at 20000 µg/mL (Klebsiella pneumoniae): 10 mm | zone of inhibition at 20000 µg/mL (Pseudomonas aeruginosa): 15 mm | zone of inhibition at 20000 µg/mL (Escherichia coli [7]): 15 mm | diameter of the inhibition zone (DIZ) (Staphylococcus aureus [8]): 10 mm | diameter of the inhibition zone (DIZ) (Escherichia coli [1]): 10 mm | diameter of the inhibition zone (DIZ) (Salmonella typhimurium): 10 mm

CC1(C)CC(=O)C2=C(C1)Oc1ncn(-c3cccc4ccccc34)c(=N)c1C2c1ccccc1 (centres undefined)
Time (Homo sapiens): 63.2 s

NC(=O)c1cnccn1 [PYRAZINAMIDE]
MIC [5]: 3.12 µg/mL (≈ 25.4 µM)
